Experimental findings from US12486253B2, “Therapeutics for the degradation of mutant BRAF” (C4 THERAPEUTICS, INC., priority 2021, dated 2025) are described below.

Assay type in all cases: cell-based
One experiment relates to phospho-ERK (T202/Y204). Description: HTRF phospho-ERK (T202/Y204) inhibition assay in A375 cells. The conditions noted are these: Homo sapiens, A-375, 24 hrs, mean of at least n = 3, read-out: pERK IC50. As to the method: A375 (harboring BRAF homozygous V600E mutation) were purchased from ATCC. DMEM Medium without phenol red and supplemented with L-glutamine was purchased from Corning (Corning, NY, USA). Advanced phospho-ERK (Thr202/Tyr204) HTRF assay kits were purchased from Cisbio (Bedford, MA, USA). Cell culture flasks and 384-well microplates were acquired from VWR (Radnor, PA, USA) or Corning (Corning, NY, USA).
Degradation of activated phospho-ERK (T202/Y204) protein was determined based on quantification of FRET signal using the Advanced phospho-ERK (T202/Y204) HTRF assay kit. Test compounds were added to the 384-well plate from a top concentration of 10 μM with 11 points, half log titration in duplicates. A375 cells were added into 384-well plates at a cell density of 8000 cells per well, respectively. The plates were kept at 37° C. with 5% CO2 for 24 hours. Cells treated in the absence of the test compound were the negative control. Positive control was set by wells containing all reagents but no cells. FRET signal was acquired on EnVision™ Multilabel Reader (PerkinElmer, Santa Clara, CA, USA).
On the technique in general: TR-FRET usually uses a lanthanide donor and a delayed reading to cut background.

A further experiment concerns A375 cells. Description: CellTiter-Glo cell growth inhibition, A375 cells. The conditions noted are these: Homo sapiens, A-375, 72 hr, mean of at least n = 3. As to the method: A375 cell viability was determined based on quantification of ATP using CellTiter-Glo® 2.0 luminescent Assay kit, which signals the presence of metabolically-active cells. Briefly, test compound was added to 384-well plates at a top concentration of 10 μM with 14 points, half log titration in duplicates. A375 cells were seeded into the 384-well plates in DMEM medium containing 10% FBS at a cell density of 250 cells per well. Cells treated in the absence of the test compound were the negative control, normalized to 100% viability, and cells treated in the absence of CellTiter-Glo® 2.0 were the positive control, normalized to 0% viability. A375 cells were incubated at 37° C. with 5% CO2 for 72 hr. CellTiter-Glo reagent was then added to the cells and Luminescence was acquired on EnVision™ Multilabel Reader (PerkinElmer, Santa Clara, CA, USA).
On the technique in general: ATP-based viability assays read luminescence as a measure of living cells.

Another experiment concerns the target WT BRAF (Homo sapiens, UniProt P15056). Description: Western blot of WT BRAF and pERK levels in HCT-116 cells. The conditions noted are these: HCT-116 cells with endogenous WT BRAF. (In western blotting, separated proteins are transferred to a membrane and probed.)
In another experiment the target is RAF1 (a.k.a CRAF) (Homo sapiens, UniProt P04049). Description: Global proteomics profiling, A375 cells. Also on record: endogenous in cells; host or cells: A375 (A8.2). The conditions noted are these: 300 nM, 24 hours. As to the method: Each cell line was treated in duplicate with either DMSO or Compound 157 (final concentration 300 nM) for 24 hours in an incubator at 37° C. with 5% CO2. After the 24-hour incubation, cells were harvested, washed twice with PBS, and snap frozen in liquid nitrogen. Samples were re-suspended in lysis buffer [8 M urea, 50 mM HEPES (pH 8.5), 50 mM NaCl, 1× protease inhibitor cocktail] and lysed by sonication at 4° C. with 85% amplitude in a pulse setting with 30 seconds on and 30 seconds off for a total sonication time of 5 minutes. Lysates were centrifuged at maximum speed for 10 minutes at 4° C. and the supernatant collected, reduced for 1 hour at room temperature with 5 mM TCEP, and the cysteine residues were then alkylated with 15 mM iodoacetamide (room temperature, in dark, 30 minutes). Protein content was extracted by methanol-chloroform precipitation and subsequent ice-cold acetone washes. Protein pellets were resuspended in 8 M urea, 50 mM HEPES (pH 8.5) buffer and protein concentrations were measured by BCA assay. […]
For peptide tandem mass tag (TMT) labeling, 100 μg of peptides per sample was prepared at […] concentration in 200 mM HEPES (pH 8.5), 30% acetonitrile (ACN) and each the specific TMT reagent. […] TMT reporter ion intensities were quantified by extracting the signal-to-noise ratio for each. […]

The next experiment has as its target T1, SALL4 (Homo sapiens, UniProt Q9UJQ4).
T1 construct: endogenously expressing SALL4 with HiBiT fusion tag via CRISPR; endogenous in cells; host or cells: KELLY.2 (from KELLY, DSMZ ACC-No. 355)
Description: SALL4 protein levels after treatment. The following applies: various concentrations.

WT BRAF, sequence (P15056 whole entry): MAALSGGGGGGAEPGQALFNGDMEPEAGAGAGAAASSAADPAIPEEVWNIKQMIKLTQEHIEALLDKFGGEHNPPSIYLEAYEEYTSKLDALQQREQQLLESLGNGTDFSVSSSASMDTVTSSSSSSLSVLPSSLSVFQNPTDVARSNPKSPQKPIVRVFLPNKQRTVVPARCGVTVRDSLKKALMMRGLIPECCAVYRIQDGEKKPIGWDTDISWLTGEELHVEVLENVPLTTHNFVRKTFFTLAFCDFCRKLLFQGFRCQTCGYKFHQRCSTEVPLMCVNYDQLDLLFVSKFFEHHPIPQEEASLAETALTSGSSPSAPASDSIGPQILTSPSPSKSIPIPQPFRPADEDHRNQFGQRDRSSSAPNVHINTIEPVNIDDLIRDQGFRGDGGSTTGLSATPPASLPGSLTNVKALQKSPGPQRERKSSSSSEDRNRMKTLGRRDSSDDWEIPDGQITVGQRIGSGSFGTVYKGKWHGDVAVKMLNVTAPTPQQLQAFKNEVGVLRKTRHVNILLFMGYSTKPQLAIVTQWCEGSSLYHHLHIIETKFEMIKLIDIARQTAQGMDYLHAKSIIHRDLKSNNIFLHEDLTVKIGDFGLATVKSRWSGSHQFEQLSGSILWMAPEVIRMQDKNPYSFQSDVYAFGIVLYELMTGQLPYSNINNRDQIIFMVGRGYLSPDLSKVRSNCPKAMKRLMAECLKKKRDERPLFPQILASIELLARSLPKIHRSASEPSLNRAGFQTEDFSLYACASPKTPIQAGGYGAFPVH
RAF1 (a.k.a CRAF), sequence (P04049 whole entry): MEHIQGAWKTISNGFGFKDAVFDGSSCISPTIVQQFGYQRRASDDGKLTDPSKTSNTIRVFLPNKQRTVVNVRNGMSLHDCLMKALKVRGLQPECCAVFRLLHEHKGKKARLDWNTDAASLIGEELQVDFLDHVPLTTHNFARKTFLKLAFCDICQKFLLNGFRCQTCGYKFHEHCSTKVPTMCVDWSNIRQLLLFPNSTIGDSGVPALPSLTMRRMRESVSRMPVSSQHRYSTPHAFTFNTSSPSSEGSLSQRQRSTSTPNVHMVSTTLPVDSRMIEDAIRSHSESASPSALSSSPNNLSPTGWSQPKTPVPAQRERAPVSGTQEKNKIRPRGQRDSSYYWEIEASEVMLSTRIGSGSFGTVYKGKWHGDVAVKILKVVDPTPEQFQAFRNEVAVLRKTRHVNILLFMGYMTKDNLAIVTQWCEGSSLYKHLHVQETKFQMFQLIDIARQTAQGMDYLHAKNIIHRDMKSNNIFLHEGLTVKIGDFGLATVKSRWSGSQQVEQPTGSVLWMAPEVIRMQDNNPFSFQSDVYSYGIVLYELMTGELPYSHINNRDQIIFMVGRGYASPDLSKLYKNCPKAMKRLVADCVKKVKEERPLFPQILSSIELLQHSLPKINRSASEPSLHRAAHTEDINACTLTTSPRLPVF
T1 sequence (Q9UJQ4 whole entry, the tested form may be a part): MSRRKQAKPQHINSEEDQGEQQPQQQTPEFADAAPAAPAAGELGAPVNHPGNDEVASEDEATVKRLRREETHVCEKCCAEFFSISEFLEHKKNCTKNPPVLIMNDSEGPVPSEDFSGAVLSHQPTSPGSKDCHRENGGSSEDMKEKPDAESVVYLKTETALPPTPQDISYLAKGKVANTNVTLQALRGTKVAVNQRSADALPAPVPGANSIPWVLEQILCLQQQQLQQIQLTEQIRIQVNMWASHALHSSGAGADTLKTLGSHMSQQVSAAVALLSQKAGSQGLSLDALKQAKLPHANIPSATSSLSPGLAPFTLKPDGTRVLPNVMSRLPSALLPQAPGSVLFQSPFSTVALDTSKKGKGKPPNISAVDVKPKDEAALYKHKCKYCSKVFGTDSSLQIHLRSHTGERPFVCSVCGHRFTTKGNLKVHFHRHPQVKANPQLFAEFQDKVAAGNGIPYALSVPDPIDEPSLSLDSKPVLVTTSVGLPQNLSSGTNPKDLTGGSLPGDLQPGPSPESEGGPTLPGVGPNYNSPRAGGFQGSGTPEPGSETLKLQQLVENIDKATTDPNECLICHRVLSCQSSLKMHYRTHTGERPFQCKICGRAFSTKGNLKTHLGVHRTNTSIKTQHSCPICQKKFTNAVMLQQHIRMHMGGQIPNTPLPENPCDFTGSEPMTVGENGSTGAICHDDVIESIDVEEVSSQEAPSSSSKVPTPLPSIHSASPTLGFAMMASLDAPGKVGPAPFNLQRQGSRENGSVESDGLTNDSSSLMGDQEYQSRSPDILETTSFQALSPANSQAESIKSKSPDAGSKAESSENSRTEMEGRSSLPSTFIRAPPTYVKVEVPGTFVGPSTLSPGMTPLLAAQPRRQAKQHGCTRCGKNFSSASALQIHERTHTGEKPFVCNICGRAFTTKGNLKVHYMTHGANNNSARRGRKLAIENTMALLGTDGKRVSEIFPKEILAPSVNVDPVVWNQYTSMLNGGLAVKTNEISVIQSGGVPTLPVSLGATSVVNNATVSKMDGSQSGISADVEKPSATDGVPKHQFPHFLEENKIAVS

By IC50 is commonly meant the concentration that inhibits the measured activity by half. What is called GI50 is the concentration at which growth is held to half of that of the control. On to `CCN(C)S(=O)(=O)Nc1ccc(F)c(Oc2ccc3ncn([C@H]4COC5(CCN(C(=O)CC6(O)CCN(c7cc8c(cc7F)c(N7CCC(=O)NC7=O)nn8C)CC6)CC5)C4)c(=O)c3c2)c1C#N` [Compound 157, (3R)-3-[6-[2-cyano-3-[[ethyl(methyl)sulfamoyl]amino]-6-fluorophenoxy]-4-oxoquinazolin-3-yl]-8-[2-[1-[3-(2,4-dioxo-1,3-diazinan-1-yl)-5-fluoro-1-methylindazol-6-yl]-4-hydroxypiperidin-4-yl]acetyl]-1-oxa-8-azaspiro[4.5]decane], for which the IC50 in the experiment with phospho-ERK (T202/Y204) came out at 3.2 nM. In the experiment on A375 cells, this molecule gave a 50% growth inhibitory concentration (GI50) of 9.3 nM. Also, the “WT BRAF levels and phosphorylation of ERK” value at WT BRAF was “minimal impact”. For the same molecule, the “RAF1 (CRAF) protein level change” value on RAF1 (a.k.a CRAF) is “remain largely unchanged”. Also, at SALL4, the SALL4 protein levels entry is on record as “steady”.
